≈ marks a conversion by molar mass, not a printed value. Where a name gives a salt, the structure may show the parent alone. Read-outs that look alike come from different tables or passages of the source.
Experiments:
Colon 26 = experiment: Test for the pharmaceutical effect on mice: tumor growth inhibition of subcutaneously implanted Colon 26; settings: Mus musculus, Colon 26, iv, 504 h, read-out: in vivo I.R. (tumor growth inhibition rate)
Description: Test for the Pharmaceutical Effect on Mice:
Colon 26 which had been cloned subcutaneously in mice was cut with scissors, and implanted subcutaneously in mice by means of a trocar. One week later, the tumors were measured using calipers, and the volumes of the tumors were calculated. The mice were grouped (each group consisting of 3 mice). The test compound was dissolved with dimethylsulfoxide and diluted with 5% by volume Tween 80/saline. A 0.2 ml of the solution was injected intravenously once a day on Day 7, Day 11 and Day 15 after the implantation. On Day 21 after the implantation, the volumes of the tumors were measured. The volume of the tumor and the tumor growth inhibition rate (I.R.) were calculated using the following expressions. [formula]
^a) Administered intravenously once a day on day 7, day 11 and day 15

[1] = test system: Mouse P388 leukemia cells; experiment: Evaluation of cytotoxicity: growth inhibition of mouse P388 leukemia cells (MTT method); assay type: cell-based; settings: 48 h, 37° C., 2 days, read-out: in vitro IC50 (50% growth inhibitory concentration)
Description: Evaluation of Cytotoxicity:
Mouse P388 leukemia cells were used as cancer cells, and a RPMI-1640 medium containing 5-μM 2-mercaptoethanol and 10% fetal bovine serum was used in the incubation. The above-mentioned cells were inoculated on a 96-well microplate in an amount of 1×10^4 cells/50 μl/well, and an aqueous solution of a test compound (4 μg/ml) was added thereto in an amount of 25 μl/well. The mixture was incubated at 37° C. for 2 days. Then, the number of live cells were counted using the MTT method, and a dose-response curve was then prepared. A 50% growth inhibitory concentration (IC50) given for the test compound was calculated according to the dose-response curve.

[2] = Minimum dose which shows death immediately after injection (toxic dose); assay type: in vivo, mice; settings: acute death immediately after injection
[3] = 80 mg/kg, intravenously once a day on day 7, day 11 and day 15, tumor volume on Day 21
[4] = 10 mg/kg, intravenously once a day on day 7, day 11 and day 15, tumor volume on Day 21
[5] = 40 mg/kg, intravenously once a day on day 7, day 11 and day 15, tumor volume on Day 21

SMILES: COc1ccc(/C=C\c2cc(OC)c(OC)c(OC)c2)cc1NC(=O)[C@@H](N)CO [(Z)-1-(3-Amino-4-methoxyphenyl)-2-(3,4,5-trimethoxyphenyl)-ethene-L-serineamide]
- inhibition in vivo at 80 mg/kg (Colon 26; [3]): 72.9%
- IC50 [1]: 4 ng/mL (≈ 9.94 nM)

SMILES: COc1ccc(/C=C(/C#N)c2cc(OC)c(OC)c(OC)c2)cc1NC(=O)[C@@H](N)CC(=O)O [(E)-3-(3-Amino-4-methoxyphenyl)-2-(3,4,5-trimethoxyphenyl)-prop-2-enenitrile-L-aspartylamide Hydrochloride]
- inhibition in vivo at 10 mg/kg (Colon 26; [4]): 1.7%
- IC50 [1]: 2 ng/mL
- Toxic Dose (minimum dose which show death immediately after injection) [2]: 40 mg/kg

SMILES: COc1ccc(/C=C(/C#N)c2cc(OC)c(OC)c(OC)c2)cc1NC(=O)[C@@H](N)CCCN [(E)-3-(3-Amino-4-methoxyphenyl)-2-(3,4,5-trimethoxyphenyl)-prop-2-enenitrile-L-ornithineamide Dihydrochloride]
- inhibition in vivo at 10 mg/kg (Colon 26): 48.9%
- IC50 [1]: 50 ng/mL

SMILES: COc1ccc(/C=C(/C#N)c2cc(OC)c(OC)c(OC)c2)cc1NC(=O)[C@H](C)N [(E)-3-(3-Amino-4-methoxyphenyl)-2-(3,4,5-trimethoxyphenyl)-prop-2-enenitrile-L-alanineamide Hydrochloride]
- inhibition in vivo at 20 mg/kg (Colon 26; 20 mg/kg, intravenously once a day on day 7, day 11 and day 15, tumor volume on Day 21): 71%
- IC50 [1]: 0.5 ng/mL
- Toxic Dose (minimum dose which show death immediately after injection) [2]: 80 mg/kg

SMILES: COc1ccc(/C=C\c2cc(OC)c(OC)c(OC)c2)cc1NC(=O)CN [(Z)-1-(3-Amino-4-methoxyphenyl)-2-(3,4,5-trimethoxyphenyl)-ethene-glycineamide]
- inhibition in vivo at 40 mg/kg (Colon 26): 33.3%
- IC50 [1]: 2 ng/mL (≈ 5.37 nM)
- Toxic Dose (minimum dose which show death immediately after injection) [2]: 80 mg/kg

SMILES: COc1ccc(/C=C\c2cc(OC)c(OC)c(OC)c2)cc1NC(=O)[C@H](C)N [(Z)-1-(3-Amino-4-methoxyphenyl)-2-(3,4,5-trimethoxyphenyl)-ethene-L-alanineamide]
- inhibition in vivo at 40 mg/kg (Colon 26): 51.9%
- IC50 [1]: 2 ng/mL (≈ 5.18 nM)
- Toxic Dose (minimum dose which show death immediately after injection) [2]: 80 mg/kg

SMILES: COc1ccc(/C=C(/C#N)c2cc(OC)c(OC)c(OC)c2)cc1NC(=O)CN [(E)-3-(3-Amino-4-methoxyphenyl)-2-(3,4,5-trimethoxyphenyl)-prop-2-enenitrile-glycineamide Hydrochloride]
- inhibition in vivo at 20 mg/kg (Colon 26): 85.7%
- IC50 [1]: 3 ng/mL
- Toxic Dose (minimum dose which show death immediately after injection) [2]: 40 mg/kg

SMILES: COc1ccc(/C=C\c2cc(OC)c(OC)c(OC)c2)cc1NC(=O)[C@@H](N)[C@@H](C)O [(Z)-1-(3-Amino-4-methoxyphenyl)-2-(3,4,5-trimethoxyphenyl)-ethene-L-threonineamide]
- inhibition in vivo at 80 mg/kg (Colon 26): 62.2%
- IC50 [1]: 6 ng/mL (≈ 14.4 nM)

SMILES: COc1ccc(/C=C(/C#N)c2cc(OC)c(OC)c(OC)c2)cc1NC(=O)[C@@H](N)[C@@H](C)O [(E)-3-(3-Amino-4-methoxyphenyl)-2-(3,4,5-trimethoxyphenyl)-prop-2-enenitrile-L-threonineamide Hydrochloride]
- inhibition in vivo at 40 mg/kg (Colon 26; [5]): 67%
- IC50 [1]: 6 ng/mL

SMILES: COc1ccc(/C=C(/C#N)c2cc(OC)c(OC)c(OC)c2)cc1NC(=O)[C@@H](N)CCCCN [(E)-3-(3-Amino-4-methoxyphenyl)-2-(3,4,5-trimethoxyphenyl)-prop-2-enenitrile-L-lysineamide Dihydrochloride]
- inhibition in vivo at 10 mg/kg (Colon 26; [4]): 33.8%
- IC50 [1]: 13 ng/mL
- Toxic Dose (minimum dose which show death immediately after injection) [2]: 20 mg/kg

SMILES: COc1ccc(/C=C(/C#N)c2cc(OC)c(OC)c(OC)c2)cc1NC(=O)[C@@H](N)CO [(E)-3-(3-Amino-4-methoxyphenyl)-2-(3,4,5-trimethoxyphenyl)-prop-2-enenitrile-L-serineamide Hydrochloride]
- inhibition in vivo at 80 mg/kg (Colon 26; [3]): 75%
- IC50 [1]: 2 ng/mL

SMILES: COc1ccc(/C=C(/C#N)c2cc(OC)c(OC)c(OC)c2)cc1NC(=O)[C@@H](N)Cc1ccccc1 [(E)-3-(3-Amino-4-methoxyphenyl)-2-(3,4,5-trimethoxyphenyl)-prop-2-enenitrile-L-phenylalanineamide Hydrochloride]
- inhibition in vivo at 40 mg/kg (Colon 26; [5]): 76.7%
- IC50 [1]: 5 ng/mL
- Toxic Dose (minimum dose which show death immediately after injection) [2]: 80 mg/kg

SMILES: COc1ccc(/C=C\c2cc(OC)c(OC)c(OC)c2)cc1NC(=O)[C@@H](N)CC(C)C [(Z)-1-(3-Amino-4-methoxyphenyl)-2-(3,4,5-trimethoxyphenyl)-ethene-L-leucineamide]
- inhibition in vivo at 40 mg/kg (Colon 26): 50.9%
- IC50 [1]: 6 ng/mL (≈ 14 nM)
- Toxic Dose (minimum dose which show death immediately after injection) [2]: 40 mg/kg

SMILES: COc1ccc(/C=C(/C#N)c2cc(OC)c(OC)c(OC)c2)cc1NC(=O)[C@@H](N)CCC(=O)O [(E)-3-(3-Amino-4-methoxyphenyl)-2-(3,4,5-trimethoxyphenyl)-prop-2-enenitrile-L-glutamylamide Hydrochloride]
- inhibition in vivo at 40 mg/kg (Colon 26; [5]): 77%
- IC50 [1]: 4 ng/mL
- Toxic Dose (minimum dose which show death immediately after injection) [2]: 80 mg/kg

SMILES: COc1ccc(/C=C(/C#N)c2cc(OC)c(OC)c(OC)c2)cc1NC(=O)[C@@H]1CCCN1 [(E)-3-(3-Amino-4-methoxyphenyl)-2-(3,4,5-trimethoxyphenyl)-prop-2-enenitrile-L-prolineamide Hydrochloride]
- inhibition in vivo at 40 mg/kg (Colon 26; [5]): 68.9%
- IC50 [1]: 200 ng/mL
- Toxic Dose (minimum dose which show death immediately after injection) [2]: 40 mg/kg

Source: patent US5674906A, “Stilbene compounds and pharmaceutical compositions containing them” (Ajinomoto Co., Inc., priority 1995, dated 1997)
